Results reported in PMC3385512 (Science Translational Medicine, 2012).

Columns and labels:
[1] = test system: phosphorylation of EML4-ALK; assay: phospho-ALK immunoblotting in Ba/F3 cells; format: cell-based; conditions: all Ba/F3 lines expressing wild-type or mutant EML4-ALK
[2] = molecular target: T1, Ba/F3 cells expressing EML4-ALK G1202R (Homo sapiens, UniProt Q9HC35+Q9UM73, G1202R); assay: Ba/F3 cell survival assay; format: cell-based
T1 sequence (Q9HC35+Q9UM73 with tags, fused parts or gaps Q9UM73:G1202R): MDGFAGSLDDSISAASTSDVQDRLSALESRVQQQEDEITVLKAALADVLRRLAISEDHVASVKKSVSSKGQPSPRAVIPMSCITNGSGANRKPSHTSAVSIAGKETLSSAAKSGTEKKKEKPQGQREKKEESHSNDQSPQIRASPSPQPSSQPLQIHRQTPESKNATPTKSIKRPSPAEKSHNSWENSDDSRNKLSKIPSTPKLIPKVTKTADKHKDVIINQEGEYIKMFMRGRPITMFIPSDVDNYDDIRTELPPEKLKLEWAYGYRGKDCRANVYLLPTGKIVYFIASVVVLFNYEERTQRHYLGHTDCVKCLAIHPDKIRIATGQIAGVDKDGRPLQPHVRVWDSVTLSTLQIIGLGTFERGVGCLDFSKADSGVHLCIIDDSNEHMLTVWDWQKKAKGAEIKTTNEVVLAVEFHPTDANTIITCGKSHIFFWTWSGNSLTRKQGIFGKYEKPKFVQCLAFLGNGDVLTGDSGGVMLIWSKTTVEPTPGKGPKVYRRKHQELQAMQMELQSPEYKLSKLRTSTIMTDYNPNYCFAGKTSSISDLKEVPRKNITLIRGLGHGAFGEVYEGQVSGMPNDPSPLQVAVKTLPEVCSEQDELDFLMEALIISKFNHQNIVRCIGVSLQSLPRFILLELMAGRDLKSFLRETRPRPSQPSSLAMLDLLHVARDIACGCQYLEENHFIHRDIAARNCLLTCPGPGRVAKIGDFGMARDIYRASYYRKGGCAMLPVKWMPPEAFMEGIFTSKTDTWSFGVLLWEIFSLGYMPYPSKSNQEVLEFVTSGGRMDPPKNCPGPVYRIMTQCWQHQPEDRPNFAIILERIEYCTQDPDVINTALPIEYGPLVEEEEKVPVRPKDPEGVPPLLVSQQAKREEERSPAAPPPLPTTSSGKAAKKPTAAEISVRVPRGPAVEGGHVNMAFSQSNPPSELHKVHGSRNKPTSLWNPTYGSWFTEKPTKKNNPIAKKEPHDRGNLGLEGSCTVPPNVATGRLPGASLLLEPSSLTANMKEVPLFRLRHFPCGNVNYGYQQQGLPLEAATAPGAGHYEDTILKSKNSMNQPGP

[3] = molecular target: T2, Ba/F3 cells expressing EML4-ALK S1206Y (Homo sapiens, UniProt Q9HC35+Q9UM73, S1206Y); assay: Ba/F3 cell survival assay; format: cell-based; conditions: without IL-3
T2 sequence (Q9HC35+Q9UM73 with tags, fused parts or gaps Q9UM73:S1206Y): T1 sequence (Q9HC35+Q9UM73 with tags, fused parts or gaps Q9UM73:G1202R) with R641G, S645Y

[4] = molecular target: Ba/F3 cells expressing EML4-ALK 1151Tins (Homo sapiens, UniProt Q9HC35+Q9UM73, DUP1151-1151); assay: Ba/F3 cell survival assay; format: cell-based; conditions: Ba/F3 EML4-ALK 1151Tins, without IL-3
[5] = molecular target: Ba/F3 cells expressing EML4-ALK L1196M (Homo sapiens, UniProt Q9HC35+Q9UM73, L1196M); assay: Ba/F3 cell survival assay; format: cell-based; conditions: without IL-3
[6] = test system: H3122 CR3 cells; assay: cell survival assay; format: cell-based; conditions: for sensitivity in cell survival assay: H3122 CR3 (no ALK mutation, EGFR activation), gefitinib 2 μM in combination
[7] = test system: parental, IL-3-dependent Ba/F3 cells; assay: Ba/F3 cell survival assay; format: cell-based, murine; conditions: parental Ba/F3 cells cultured with IL-3 (off-target toxicity control)
[8] = test system: H3122 CR2 cells; assay: cell survival assay; format: cell-based
[9] = test system: KIT-overexpressing H3122 cells; conditions: imatinib 1 μM with crizotinib 1 μM and SCF 100 ng/ml
[10] = test system: H3122 CR3 cells; conditions: H3122 CR3, 1 μM crizotinib, 2 μM gefitinib or the combination, 72 hours
[11] = molecular target: Ba/F3 cells expressing wild-type EML4-ALK (Homo sapiens, UniProt Q9HC35+Q9UM73); assay: Ba/F3 cell survival assay; format: cell-based; conditions: without IL-3
[12] = molecular target: ALK (V1058-P1620) wild type (Homo sapiens, UniProt Q9UM73); assay: in vitro kinase assay; format: biochemical; conditions: in vitro kinase assay data, tables S1 and S2
ALK (V1058-P1620) wild type, sequence (Q9UM73 1058-1620): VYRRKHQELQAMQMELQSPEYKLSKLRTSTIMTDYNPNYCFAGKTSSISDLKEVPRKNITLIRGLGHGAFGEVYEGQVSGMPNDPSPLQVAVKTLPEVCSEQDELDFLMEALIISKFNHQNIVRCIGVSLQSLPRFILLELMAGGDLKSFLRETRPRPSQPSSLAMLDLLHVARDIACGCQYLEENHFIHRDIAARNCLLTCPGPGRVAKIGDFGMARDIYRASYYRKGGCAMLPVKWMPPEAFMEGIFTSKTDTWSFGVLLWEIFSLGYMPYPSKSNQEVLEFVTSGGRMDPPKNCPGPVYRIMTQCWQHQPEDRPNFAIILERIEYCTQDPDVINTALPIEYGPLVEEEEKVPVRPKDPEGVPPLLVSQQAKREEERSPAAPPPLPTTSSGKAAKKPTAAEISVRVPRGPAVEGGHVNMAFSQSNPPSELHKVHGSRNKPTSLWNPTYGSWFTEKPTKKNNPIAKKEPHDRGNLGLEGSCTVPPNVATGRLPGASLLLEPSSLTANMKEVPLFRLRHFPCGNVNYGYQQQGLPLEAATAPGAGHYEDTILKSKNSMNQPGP

[13] = test system: H3122 CR1 cells; assay: cells; conditions: Homo sapiens, NCI-H3122, 72 h
[14] = test system: H3122 cells; assay: apoptosis assay; format: cell-based; conditions: parental H3122, 1 μM crizotinib, 72 hours
[15] = test system: H3122 cells; assay: cell survival assay; format: cell-based; conditions: parental H3122 cells (EML4-ALK variant 1)
[16] = test system: MGH006 cells; conditions: from crizotinib-naive ALK-positive NSCLC patient

C=CCNC1=C2C[C@@H](C)C[C@H](OC)[C@H](O)[C@@H](C)/C=C(\C)[C@H](OC(N)=O)[C@@H](OC)/C=C\C=C(/C)C(=O)NC(=CC1=O)C2=O [17-AAG, 17-allylamino-17-demethoxygeldanamycin]
effect on phospho-ALK and total ALK protein levels [1]: decreased both phospho-ALK and total ALK protein levels | potency / resistance in cell survival assay ([2]; Ba/F3 EML4-ALK G1202R, without IL-3): highly active | potency / resistance in cell survival assay [3]: highly active | potency / resistance in cell survival assay [4]: highly active | potency / resistance in cell survival assay [5]: highly active | sensitivity in cell survival assay [6]: resistant | activity in cell survival assay [7]: at relatively low concentrations | sensitivity in cell survival assay ([8]; H3122 CR2 (1151Tins)): highly susceptible

COc1cc(N2CCC(N3CCN(C)CC3)CC2)ccc1Nc1ncc(Cl)c(Nc2ccccc2S(=O)(=O)C(C)C)n1 [NVP-TAE684]
activity in cell survival assay [7]: less effective

Cc1ccc(NC(=O)c2ccc(CN3CCN(C)CC3)cc2)cc1Nc1nccc(-c2cccnc2)n1 [imatinib]
effect on crizotinib-resistant phenotype [9]: completely reversed the resistant phenotype

COc1cc2ncnc(Nc3ccc(F)c(Cl)c3)c2cc1OCCCN1CCOCC1 [gefitinib]
induction of apoptosis [10]: failed to induce apoptosis | sensitivity in cell survival assay [6]: resistant

COc1cc(N2CCC(N3CCN(C)CC3)CC2)ccc1Nc1ncnc(Nc2ccccc2S(=O)(=O)C(C)C)n1 [ASP-3026]
potency in cell survival assay [11]: not as potent as crizotinib and CH5424802 | shift in IC50 compared to wild-type ALK (fold) ([2]; Ba/F3 EML4-ALK G1202R relative to wild-type): fourfold | potency and selectivity against wild-type ALK in vitro [12]: relatively potent and selective

C[C@@H](Oc1cc(-c2cnn(C3CCNCC3)c2)cnc1N)c1c(Cl)ccc(F)c1Cl [crizotinib]
IC50 [13]: > 1000 nM | induction of apoptosis [14]: marked apoptosis | sensitivity in cell survival assay [15]: highly sensitive | sensitivity in cell survival assay [16]: sensitive | induction of apoptosis [10]: failed to induce apoptosis | sensitivity in cell survival assay [6]: resistant | IC50 ([6]; Homo sapiens, NCI-H3122, 72 h): > 1000 nM | IC50 ([8]; Homo sapiens, NCI-H3122, 72 h): > 1000 nM
